Patent US10906940B2, “Antimicrobial peptides, pharmaceutical compositions, and methods of use thereof” (priority 2014, dated 2021)
≈ marks a conversion by molar mass, not a printed value. Where a SMILES comes first, the peptide text is derived from it. Bridges are numbered along the chain shown (N, C = ends). [ ]: non-standard residue; d: D form. The star is where a group is joined. Tridecanoyl = CCCCCCCCCCCCC(=O)*; dOrn = NCCC[C@@H](N)C(=O)O

What was measured:
[1] = tested on: Salmonella CVM 40118 (oxa-1); assay type: cell-based
From the text: (§1) The same MIC assay as in Example 6 was used to determine the antimicrobial susceptibility of Compound A, L-form (FIG. 15), and several variants. One variant was Compound A, D-form, with D-Lysine at position 7. Compound B is a variant in the fatty acid chain, with a fatty acid chain composition of C15H29O, and having D-Lys at position 7. Compound C is a variant in the fatty acid chain with a fatty acid chain composition of C11H21O, and having D-Lys at position 7. Variant D is a sequence variant with Phe at position 6 of the cyclic peptide, and having D-Lys at position 7. All variants were chemically synthesized.

[2] = tested on: Serratia marcescens SAMN 04276914; assay type: cell-based; details: SAMN 04276914
From the text: as §1

[3] = tested on: Serratia marcescens SAMN 04276915; assay type: cell-based; details: SAMN 04276915
From the text: as §1

[4] = tested on: Serratia marcescens SBJ-8283; assay type: cell-based; details: SBJ-8283
From the text: as §1

[5] = tested on: Serratia marcescens SBJ-9047; assay type: cell-based; details: SBJ-9047
From the text: as §1

[6] = tested on: S. aureus 10; test: microbe, parasite or virus in culture; assay type: cell-based, Staphylococcus aureus; details: 10
From the text: as §1

[7] = tested on: S. aureus 12; test: microbe, parasite or virus in culture; assay type: cell-based, Staphylococcus aureus; details: 12
From the text: as §1

[8] = tested on: S. aureus 14; test: microbe, parasite or virus in culture; assay type: cell-based, Staphylococcus aureus; details: 14
From the text: as §1

[9] = tested on: S. aureus 19; test: microbe, parasite or virus in culture; assay type: cell-based, Staphylococcus aureus; details: 19
From the text: as §1

[10] = tested on: S. aureus 2; test: microbe, parasite or virus in culture; assay type: cell-based, Staphylococcus aureus; details: 2
From the text: as §1

[11] = tested on: S. aureus 4; test: microbe, parasite or virus in culture; assay type: cell-based, Staphylococcus aureus; details: 4
From the text: as §1

[12] = tested on: S. aureus 6; test: microbe, parasite or virus in culture; assay type: cell-based, Staphylococcus aureus; details: 6
From the text: as §1

[13] = tested on: S. aureus 8; test: microbe, parasite or virus in culture; assay type: cell-based, Staphylococcus aureus; details: 8
From the text: as §1

[14] = tested on: E. coli CVM 15100 (mir1); assay type: cell-based, Escherichia coli
From the text: as §1

[15] = tested on: E. coli CVM 15103 (tem2); assay type: cell-based, Escherichia coli
From the text: as §1

[16] = tested on: E. coli CVM 15104 (shv3); assay type: cell-based, Escherichia coli
From the text: as §1

[17] = tested on: E. coli CVM 35778 (ctx-m-2); assay type: cell-based, Escherichia coli
From the text: as §1

[18] = tested on: E. coli CVM 40126 (oxa-1); assay type: cell-based, Escherichia coli
From the text: as §1

[19] = tested on: E. coli CVM 40127 (oxa-2); assay type: cell-based, Escherichia coli
From the text: as §1

[20] = tested on: E. coli CVM 40128 (oxa-7); assay type: cell-based, Escherichia coli
From the text: as §1

[21] = tested on: E. coli CVM 40129 (oxa-5); assay type: cell-based, Escherichia coli
From the text: as §1

[22] = tested on: E. coli CVM 40130 (oxa-9); assay type: cell-based, Escherichia coli
From the text: as §1

[23] = tested on: E. coli CVM 40131 (ctx-m-2); assay type: cell-based, Escherichia coli
From the text: as §1

[24] = tested on: E. coli CVM 40132 (ctx-m-9); assay type: cell-based, Escherichia coli
From the text: as §1

[25] = tested on: E. coli CVM 40133 (ctx-m-14); assay type: cell-based, Escherichia coli
From the text: as §1

[26] = tested on: E. coli CVM 40134 (ctx-m-15); assay type: cell-based, Escherichia coli
From the text: as §1

[27] = tested on: E. coli CVM 40136 (tem 52b); assay type: cell-based, Escherichia coli
From the text: as §1

[28] = tested on: E. coli CVM 40137 (DHA-1); assay type: cell-based, Escherichia coli
From the text: as §1

[29] = tested on: E. coli CVM 40138 (LCR-1); assay type: cell-based, Escherichia coli
From the text: as §1

[30] = tested on: E. coli CVM 40139 (fox-1); assay type: cell-based, Escherichia coli
From the text: as §1

[31] = tested on: E. coli CVM 40141 (imp-1); assay type: cell-based, Escherichia coli
From the text: as §1

[32] = tested on: E. coli CVM 40143 (act-1); assay type: cell-based, Escherichia coli
From the text: as §1

[33] = tested on: E. coli CVM 40147 (vim-2); assay type: cell-based, Escherichia coli
From the text: as §1

[34] = tested on: E. coli CVM40146 (vim-1); assay type: cell-based, Escherichia coli
From the text: as §1

[35] = tested on: E. coli CVM40148 (veb-1); assay type: cell-based, Escherichia coli
From the text: as §1

[36] = tested on: S. Bareilly CVM40145 (ACC-1); assay type: cell-based, Salmonella
From the text: as §1

[37] = tested on: S. Heidelberg CVM 40140 (cmy-2); assay type: cell-based, Salmonella
From the text: as §1

[38] = tested on: S. Keur massar CVM 40135 (shv12); assay type: cell-based, Salmonella
From the text: as §1

[39] = tested on: S. Newport CVM 40115 (cmy 2); assay type: cell-based, Salmonella
From the text: as §1

[40] = tested on: S. Typhimurium CVM 40117 (ctx-m-5); assay type: cell-based, Salmonella
From the text: as §1

Row | Compound | MIC [1] | MIC [2] | MIC [3] | MIC [14] | MIC [15] | MIC [16] | MIC [17] | MIC [18] | MIC [19] | MIC [20] | MIC [21] | MIC [22] | MIC [23] | MIC [24] | MIC [25] | MIC [26] | MIC [27] | MIC [28] | MIC [29] | MIC [30] | also measured
1 | CCCCCCCCCCCCC(=O)N[C@H](CCCN)C(=O)N[C@H](C(=O)N[C@@H]1C(=O)N[C@H](CCCN)C(=O)N[C@@H](CO)C(=O)N[C@@H](Cc2ccc(O)cc2)C(=O)N[C@H](CCCCN)C(=O)N[C@H](CO)C(=O)N[C@@H]([C@@H](C)CC)C(=O)N2CCC[C@H]2C(=O)N[C@@H]([C@@H](C)CC)C(=O)N2CCC[C@H]2C(=O)N[C@@H]([C@@H](C)CC)C(=O)O[C@@H]1C)C(C)C [Compound A D-form] (Tridecanoyl-[dOrn]VT[dOrn]SY[dK][dS]IPIPI; ester 3-C) | 4 µg/mL (≈ 2.46 µM) | 32 µg/mL (≈ 19.7 µM) | 64 µg/mL (≈ 39.4 µM) | 8 µg/mL (≈ 4.93 µM) | 8 µg/mL (≈ 4.93 µM) | 8 µg/mL (≈ 4.93 µM) | 8 µg/mL (≈ 4.93 µM) | 8 µg/mL (≈ 4.93 µM) | 8 µg/mL (≈ 4.93 µM) | 8 µg/mL (≈ 4.93 µM) | 8 µg/mL (≈ 4.93 µM) | 8 µg/mL (≈ 4.93 µM) | 8 µg/mL (≈ 4.93 µM) | 8 µg/mL (≈ 4.93 µM) | 16 µg/mL (≈ 9.85 µM) | 8 µg/mL (≈ 4.93 µM) | 16 µg/mL (≈ 9.85 µM) | 8 µg/mL (≈ 4.93 µM) | 8 µg/mL (≈ 4.93 µM) | 8 µg/mL (≈ 4.93 µM) | MIC [4]: 16 µg/mL (≈ 9.85 µM); MIC [5]: 32 µg/mL (≈ 19.7 µM); MIC [6]: 8 µg/mL (≈ 4.93 µM); MIC [7]: 4 µg/mL (≈ 2.46 µM); MIC [8]: 8 µg/mL (≈ 4.93 µM); MIC [9]: 8 µg/mL (≈ 4.93 µM); MIC [10]: 4 µg/mL (≈ 2.46 µM); MIC [11]: 4 µg/mL (≈ 2.46 µM); MIC [12]: 4 µg/mL (≈ 2.46 µM); MIC [13]: 4 µg/mL (≈ 2.46 µM); MIC [31]: 16 µg/mL (≈ 9.85 µM); MIC [32]: 8 µg/mL (≈ 4.93 µM); MIC [33]: 16 µg/mL (≈ 9.85 µM); MIC [34]: 8 µg/mL (≈ 4.93 µM); MIC [35]: 8 µg/mL (≈ 4.93 µM); MIC [36]: 8 µg/mL (≈ 4.93 µM); MIC [37]: 16 µg/mL (≈ 9.85 µM); MIC [38]: 16 µg/mL (≈ 9.85 µM); MIC [39]: 8 µg/mL (≈ 4.93 µM); MIC [40]: 8 µg/mL (≈ 4.93 µM)
2 | CCCCCCCCCCCCC(=O)N[C@H](CCCN)C(=O)N[C@H](C(=O)N[C@@H]1C(=O)N[C@H](CCCN)C(=O)N[C@@H](CO)C(=O)N[C@@H](Cc2ccc(O)cc2)C(=O)N[C@@H](CCCCN)C(=O)N[C@H](CO)C(=O)N[C@@H]([C@@H](C)CC)C(=O)N2CCC[C@H]2C(=O)N[C@@H]([C@@H](C)CC)C(=O)N2CCC[C@H]2C(=O)N[C@@H]([C@@H](C)CC)C(=O)O[C@@H]1C)C(C)C [Compound A L-form] (Tridecanoyl-[dOrn]VT[dOrn]SYK[dS]IPIPI; ester 3-C) | 4 µg/mL (≈ 2.46 µM) | 64 µg/mL (≈ 39.4 µM) | ≥128 µg/mL | 8 µg/mL (≈ 4.93 µM) | 8 µg/mL (≈ 4.93 µM) | 8 µg/mL (≈ 4.93 µM) | 8 µg/mL (≈ 4.93 µM) | 4 µg/mL (≈ 2.46 µM) | 8 µg/mL (≈ 4.93 µM) | 8 µg/mL (≈ 4.93 µM) | 4 µg/mL (≈ 2.46 µM) | 8 µg/mL (≈ 4.93 µM) | 4 µg/mL (≈ 2.46 µM) | 8 µg/mL (≈ 4.93 µM) | 8 µg/mL (≈ 4.93 µM) | 8 µg/mL (≈ 4.93 µM) | 8 µg/mL (≈ 4.93 µM) | 8 µg/mL (≈ 4.93 µM) | 8 µg/mL (≈ 4.93 µM) | 8 µg/mL (≈ 4.93 µM) | MIC [31]: 32 µg/mL (≈ 19.7 µM); MIC [32]: 8 µg/mL (≈ 4.93 µM); MIC [33]: 16 µg/mL (≈ 9.85 µM); MIC [34]: 8 µg/mL (≈ 4.93 µM); MIC [35]: 8 µg/mL (≈ 4.93 µM); MIC [36]: 16 µg/mL (≈ 9.85 µM); MIC [37]: 16 µg/mL (≈ 9.85 µM); MIC [38]: 16 µg/mL (≈ 9.85 µM); MIC [39]: 8 µg/mL (≈ 4.93 µM); MIC [40]: 8 µg/mL (≈ 4.93 µM)
